From patent US8178689B2, “Tricyclic compounds” (Hoffman-La Roche Inc., priority 2010, dated 2012)

Target: T1, Recombinant human liver GK1 (GST-GK) (Homo sapiens, UniProt P35557)
T1 construct: made in house; host or cells: E. coli
T1 sequence (P35557 1-466 isoform P35557-2): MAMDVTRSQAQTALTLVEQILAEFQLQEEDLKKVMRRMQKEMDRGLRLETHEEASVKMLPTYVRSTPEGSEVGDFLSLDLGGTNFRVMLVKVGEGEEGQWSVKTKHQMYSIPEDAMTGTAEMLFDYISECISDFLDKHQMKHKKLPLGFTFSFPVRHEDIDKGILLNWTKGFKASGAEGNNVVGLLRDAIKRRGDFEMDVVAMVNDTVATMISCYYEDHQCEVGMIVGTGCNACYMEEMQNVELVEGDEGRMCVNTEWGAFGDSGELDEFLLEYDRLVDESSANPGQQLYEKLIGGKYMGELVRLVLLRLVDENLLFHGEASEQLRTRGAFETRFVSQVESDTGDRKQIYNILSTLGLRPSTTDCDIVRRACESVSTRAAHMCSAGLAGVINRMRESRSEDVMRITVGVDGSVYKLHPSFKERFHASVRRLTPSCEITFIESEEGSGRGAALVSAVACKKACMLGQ
Assay: In vitro glucokinase activity (G6PDH-coupled NADH generation assay)
Format: biochemical
Design: unit not given here
Conditions: concentration of activator that produced a 50% increase in the activity of GK; 5 mM D-glucose, 30° C., pH 7.1, 10% DMSO
Procedure: Glucokinase In Vitro Assay Protocol: Glucokinase (GK) was assayed by coupling the production of glucose-6-phosphate to the generation of NADH with glucose-6-phosphate dehydrogenase (G6PDH, 0.75-1 kunits/mg; Boehringer Mannheim, Indianapolis, Ind.) from Leuconostoc mesenteroides as the coupling enzyme:
Recombinant human liver GK1 was expressed in E. coli as a glutathione S-transferase fusion protein (GST-GK) [Liang et al, 1995]and was purified by chromatography over a glutathione-Sepharose 4B affinity column using the procedure provided by the manufacturer (Amersham Pharmacia Biotech, Piscataway, N.J.).
The assay was conducted at 30° C. in a flat bottom 96-well tissue culture plate from Costar (Cambridge, Mass.) with a final incubation volume of 120 μL. The incubation reaction contained the following: 25 mM Hepes buffer (pH 7.1), 25 mM KCl, 5 mM D-glucose, 1 mM ATP, 1.8 mM NAD, 2 mM MgCl2, 1 μM sorbitol-6-phosphate, 1 mM dithiothreitol, test drug or 10% DMSO, ˜7 units/ml G6PDH, and GK (see below). All organic reagents were >98% pure and were from Boehringer Mannheim with the exceptions of D-glucose and Hepes which were from Sigma Chemical Co, St Louis, Mo. Test compounds were dissolved in DMSO and were added to the incubation reaction minus GST-GK in a volume of 12 μL to yield a final DMSO concentration of 10%. This mix was pre-incubated in the temperature controlled chamber of a SPECTRAmax 250 microplate spectrophotometer (Molecular Devices Corporation, Sunnyvale, Calif.) for 10 minutes to allow temperature equilibrium and then the reaction was started by the addition of 20 μL GST-GK.
After addition of enzyme, the increase in optical density (OD) at 340 nm was monitored spectrophotometrically to determine the rate of change (OD340 per min). The GK activity (OD340/min) in control wells (10% DMSO minus GK activators) was compared with the activity in wells containing test GK activators, and the concentration of activator that produced a 50% increase in the activity of GK, i.e., the SC1.5:0.1, was calculated. The table below provides the in vitro glucokinase activity for the compounds in the Examples: […]

SC 1.5:0.1 | SMILES
2.532 | COc1ccc(OC)c2c1CC1=C(O2)C(=O)N([C@@H](CC(C)C)C(=O)Nc2ccccn2)C1 [Example 18, (S)-2-(5,8-Dimethoxy-3-oxo-3,9-dihydro-1H-chromeno[2,3-c]pyrrol-2-yl)-4-methyl-pentanoic acid pyridin-2-ylamide]
11.865 | CC(C)C[C@@H](C(=O)Nc1ccccn1)N1CC2=C(Oc3c(Cl)cccc3C2)C1=O [Example 23, (S)-2-(5-Chloro-3-oxo-3,9-dihydro-1H-chromeno[2,3-c]pyrrol-2-yl)-4-methyl-pentanoic acid pyridin-2-ylamide]
18.957 | CC(C)C[C@@H](C(=O)Nc1nccs1)N1CC2=C(Oc3c(Cl)cccc3C2)C1=O [Example 24, (S)-2-(5-Chloro-3-oxo-3,9-dihydro-1H-chromeno[2,3-c]pyrrol-2-yl)-4-methyl-pentanoic acid thiazol-2-ylamide]
0.911 | COc1ccc(OC)c2c1CC1=C(O2)C(=O)N([C@@H](CC(C)C)C(=O)Nc2ccc(Cl)cn2)C1 [Example 14, (S)-2-(5,8-Dimethoxy-3-oxo-3,9-dihydro-1H-chromeno[2,3-c]pyrrol-2-yl)-4-methyl-pentanoic acid (5-chloro-pyridin-2-yl)-amide]
4.602 | CC(C)C[C@@H](C(=O)Nc1ccccn1)N1CC2=C(Oc3cccc(Cl)c3C2)C1=O [Example 3, (S)-2-(8-Chloro-3-oxo-3,9-dihydro-1H-chromeno[2,3-c]pyrrol-2-yl)-4-methyl-pentanoic acid pyridin-2-ylamide]
0.333 | COc1cccc2c1CC1=C(O2)C(=O)N([C@@H](CC2CCCCC2)C(=O)Nc2ccccn2)C1 [Example 7, (S)-3-Cyclohexyl-2-(8-methoxy-3-oxo-3,9-dihydro-1H-chromeno[2,3-c]pyrrol-2-yl)-N-pyridin-2-yl-propionamide]
0.906 | COC(=O)c1ccc(NC(=O)[C@H](CC(C)C)N2CC3=C(Oc4cccc(OC)c4C3)C2=O)nc1 [Example 12, 6-[(S)-2-(8-Methoxy-3-oxo-3,9-dihydro-1H-chromeno[2,3-c]pyrrol-2-yl)-4-methyl-pentanoylamino]-nicotinic acid methyl ester]
0.428 | COc1ccc(OC)c2c1CC1=C(O2)C(=O)N([C@@H](CC2CCCCC2)C(=O)Nc2ccc(Cl)cn2)C1 [Example 15, (S)—N-(5-Chloro-pyridin-2-yl)-3-cyclohexyl-2-(5,8-dimethoxy-3-oxo-3,9-dihydro-1H-chromeno[2,3-c]pyrrol-2-yl)-propionamide]
0.302 | COC(=O)c1ccc(NC(=O)[C@H](CC2CCCCC2)N2CC3=C(Oc4cccc(OC)c4C3)C2=O)nc1 [Example 10, 6-[(S)-3-Cyclohexyl-2-(8-methoxy-3-oxo-3,9-dihydro-1H-chromeno[2,3-c]pyrrol-2-yl)-propionylamino]-nicotinic acid methyl ester]
3.18 | CC(C)C[C@@H](C(=O)Nc1ccc(Cl)cn1)N1CC2=C(Oc3cccc(Cl)c3C2)C1=O [Example 4, (S)-2-(8-Chloro-3-oxo-3,9-dihydro-1H-chromeno[2,3-c]pyrrol-2-yl)-4-methyl-pentanoic acid (5-chloro-pyridin-2-yl)-amide]
4.051 | O=C(Nc1nccs1)[C@H](CC1CCCCC1)N1CC2=C(Oc3cccc(Cl)c3C2)C1=O [Example 2, (S)-2-(8-Chloro-3-oxo-3,9-dihydro-1H-chromeno[2,3-c]pyrrol-2-yl)-3-cyclohexyl-N-thiazol-2-yl-propionamide]
9.858 | COC(=O)c1ccc(NC(=O)[C@H](CC(C)C)N2CC3=C(Oc4c(Cl)cccc4C3)C2=O)nc1 [Example 22, 6-[(S)-2-(5-Chloro-3-oxo-3,9-dihydro-1H-chromeno[2,3-c]pyrrol-2-yl)-4-methyl-pentanoylamino]-nicotinic acid methyl ester]
0.292 | COc1cccc2c1CC1=C(O2)C(=O)N([C@@H](CC2CCCCC2)C(=O)Nc2ccc(Cl)cn2)C1 [Example 8, (S)—N-(5-Chloro-pyridin-2-yl)-3-cyclohexyl-2-(8-methoxy-3-oxo-3,9-dihydro-1H-chromeno[2,3-c]pyrrol-2-yl)-propionamide]
0.803 | COC(=O)c1ccc(NC(=O)[C@H](CC(C)C)N2CC3=C(Oc4c(OC)ccc(OC)c4C3)C2=O)nc1 [Example 19, 6-[(S)-2-(5,8-Dimethoxy-3-oxo-3,9-dihydro-1H-chromeno[2,3-c]pyrrol-2-yl)-4-methyl-pentanoylamino]-nicotinic acid methyl ester]
2.439 | COc1ccc(OC)c2c1CC1=C(O2)C(=O)N([C@@H](CC2CCCCC2)C(=O)Nc2nccs2)C1 [Example 16, (S)-3-Cyclohexyl-2-(5,8-dimethoxy-3-oxo-3,9-dihydro-1H-chromeno[2,3-c]pyrrol-2-yl)-N-thiazol-2-yl-propionamide]
4.181 | O=C(Nc1nccs1)[C@H](CC1CCCCC1)N1CC2=C(Oc3c(Cl)cccc3C2)C1=O [Example 21, (S)-2-(5-Chloro-3-oxo-3,9-dihydro-1H-chromeno[2,3-c]pyrrol-2-yl)-3-cyclohexyl-N-thiazol-2-yl-propionamide]
0.507 | COc1cccc2c1CC1=C(O2)C(=O)N([C@@H](CC2CCCCC2)C(=O)Nc2ccn(C[C@@H](O)CO)n2)C1 [Example 25, (S)-3-Cyclohexyl-N-[1-((R)-2,3-dihydroxy-propyl)-1H-pyrazol-3-yl]-2-(8-methoxy-3-oxo-3,9-dihydro-1H-chromeno[2,3-c]pyrrol-2-yl)-propionamide]
1.311 | O=C(Nc1ccccn1)[C@H](CC1CCCCC1)N1CC2=C(Oc3cccc(Cl)c3C2)C1=O [Example 1, (S)-2-(8-Chloro-3-oxo-3,9-dihydro-1H-chromeno[2,3-c]pyrrol-2-yl)-3-cyclohexyl-N-pyridin-2-yl-propionamide]
3.324 | COC(=O)c1ccc(NC(=O)[C@H](CC(C)C)N2CC3=C(Oc4cccc(Cl)c4C3)C2=O)nc1 [Example 6, 6-[(S)-2-(8-Chloro-3-oxo-3,9-dihydro-1H-chromeno[2,3-c]pyrrol-2-yl)-4-methyl-pentanoylamino]-nicotinic acid methyl ester]
8.123 | COc1cccc2c1CC1=C(O2)C(=O)N([C@@H](CC(C)C)C(=O)Nc2nccs2)C1 [Example 11, (S)-2-(8-Methoxy-3-oxo-3,9-dihydro-1H-chromeno[2,3-c]pyrrol-2-yl)-4-methyl-pentanoic acid thiazol-2-ylamide]
0.746 | COc1cccc2c1CC1=C(O2)C(=O)N([C@@H](CC2CCCCC2)C(=O)Nc2nccs2)C1 [Example 9, (S)-3-Cyclohexyl-2-(8-methoxy-3-oxo-3,9-dihydro-1H-chromeno[2,3-c]pyrrol-2-yl)-N-thiazol-2-yl-propionamide]
2.423 | O=C(Nc1ccccn1)[C@H](CC1CCCCC1)N1CC2=C(Oc3c(Cl)cccc3C2)C1=O [Example 20, (S)-2-(5-Chloro-3-oxo-3,9-dihydro-1H-chromeno[2,3-c]pyrrol-2-yl)-3-cyclohexyl-N-pyridin-2-yl-propionamide]
9.277 | CC(C)C[C@@H](C(=O)Nc1nccs1)N1CC2=C(Oc3cccc(Cl)c3C2)C1=O [Example 5, (S)-2-(8-Chloro-3-oxo-3,9-dihydro-1H-chromeno[2,3-c]pyrrol-2-yl)-4-methyl-pentanoic acid thiazol-2-ylamide]
0.219 | COC(=O)c1ccc(NC(=O)[C@H](CC2CCCCC2)N2CC3=C(Oc4c(OC)ccc(OC)c4C3)C2=O)nc1 [Example 17, 6-[(S)-3-Cyclohexyl-2-(5,8-dimethoxy-3-oxo-3,9-dihydro-1H-chromeno[2,3-c]pyrrol-2-yl)-propionylamino]-nicotinic acid methyl ester]
0.304 | COc1ccc(OC)c2c1CC1=C(O2)C(=O)N([C@@H](CC2CCCCC2)C(=O)Nc2ccccn2)C1 [Example 13, (S)-3-Cyclohexyl-2-(5,8-dimethoxy-3-oxo-3,9-dihydro-1H-chromeno[2,3-c]pyrrol-2-yl)-N-pyridin-2-yl-propionamide]
